Assay results taken from patent US11655238B2 (priority 2018, dated 2023).
Values after ≈ are worked out from the molar mass of the structure shown. Where two headings read alike, the source gives them in different places.

Experiments:
Assay type in all cases: cell-based
[1] = test system: Mycobacterium bovis BCG strain; assay: microbe, parasite or virus in culture; settings: for MIC: Mycobacterium tuberculosis variant bovis BCG, BCG, 168 h, read-out: MIC (μg/mL) Mycobacterium bovis BCG, BCG strain, 7H9 medium, 37° C., 168 hours, resazurin; for inhibitory effect on BCG strain (summary of Table 2): in words
[2] = test system: Mycobacterium tuberculosis H37Ra strain; assay: microbe, parasite or virus in culture; settings: for MIC: Mycobacterium tuberculosis, H37RA, 168 h, read-out: MIC (μg/mL) Mycobacterium tuberculosis H37Ra
[3] = test system: Mycobacterium smegmatis strain (mc2155); assay: Resazurin microplate MIC on Mycobacterium smegmatis; settings: for MIC: Mycolicibacterium smegmatis, MC2155, 48 h
[4] = mc2155, 7H9 medium, 37° C., 48 hours, resazurin, read-out: MIC (μg/mL) Mycobacterium smegmatis

Compound | MIC [1] [µg/mL] | MIC [2] [µg/mL] | MIC [3, 4] [µg/mL] | inhibitory effect on BCG strain (summary of Table 2) [1] | inhibitory effect on H37Ra strain (summary of Table 2) [2] | inhibitory effect on smegmatis strain (summary of Table 2) [3] | MIC ([3]; read-out: MIC (μg/mL) Mycobacterium smegmatis, mc2155, 7H9 medium, 37° C., 48 hours, resazurin) [µg/mL]
Cc1c(CNC(=O)NC23CC4CC(CC(C4)C2)C3)nn(-c2ccc(Cl)cc2Cl)c1-c1ccc(Cl)cc1 [Compound 10, 1-((3s,5s,7s)-adamantan-1-yl)-3-((5-(4-chlorophenyl)-1-(2,4-dichlorophenyl)-4-methyl-1H-pyrazol-3-yl)methyl)urea] | > 171 | > 171 | 171 (≈ 314 µM) |  |  |  | 
Cc1c(CNC(=O)NCC23CC4CC(CC(C4)C2)C3)nn(-c2ccc(Cl)cc2Cl)c1-c1ccc(Cl)cc1 [Compound 11, 1-(((3r,5r,7r)-adamantan-1-yl)-methyl)-3-((5-(4-chlorophenyl)-1-(2,4-dichlorophenyl)-4-methyl-1H-pyrazol-3-yl)-methyl)urea] | > 134 | 33.5 (≈ 60.1 µM) | 134 (≈ 240 µM) |  |  |  | 
Cc1c(CNC(=O)NCCC23CC4CC(CC(C4)C2)C3)nn(-c2ccc(Cl)cc2Cl)c1-c1ccc(Cl)cc1 [Compound 12, 1-(2-((3r,5r,7r)-adamantan-1-yl)ethyl)-3-((5-(4-chloro-phenyl)-1-(2,4-dichlorophenyl)-4-methyl-1H-pyrazol-3-yl)-methyl)urea] | > 122 | 122 (≈ 213 µM) | 15.2 (≈ 26.6 µM) |  |  |  | 
Cc1c(C(=O)NCCNC2C3CC4CC(C3)CC2C4)nn(-c2ccc(Cl)cc2Cl)c1-c1ccc(Cl)cc1 (stereo not drawn) [Compound 17, N-(2-(((1r,3r,5r,7r)-adamantan-2-yl)amino)ethyl)-5-(4-chloro-phenyl)-1-(2,4-dichlorophenyl)-4-methyl-1H-pyrazole-3-carboxamide] | 5.95 (≈ 10.7 µM) | 5.95 (≈ 10.7 µM) | 11.9 (≈ 21.3 µM) | good inhibitory effects | good inhibitory effects | good inhibitory effects | 
Cc1c(C(=O)NCCCNC2C3CC4CC(C3)CC2C4)nn(-c2ccc(Cl)cc2Cl)c1-c1ccc(Cl)cc1 (stereo not drawn) [Compound 18, N-(3-(((1r,3r,5r,7r)-adamantan-2-yl)amino)propyl)-5-(4-chlorophenyl)-1-(2,4-dichlorophenyl)-4-methyl-1H-pyrazole-3-carboxamide] | 6.1 (≈ 10.7 µM) | 6.1 (≈ 10.7 µM) | 24.4 (≈ 42.6 µM) | good inhibitory effects | good inhibitory effects | good inhibitory effects | 
Cc1c(C(=O)NCCCCNC2C3CC4CC(C3)CC2C4)nn(-c2ccc(Cl)cc2Cl)c1-c1ccc(Cl)cc1 (stereo not drawn) [Compound 19, N-(4-(((1r,3r,5r,7r)-adamantan-2-yl)amino)butyl)-5-(4-chlorophenyl)-1-(2,4-dichlorophenyl)-4-methyl-1H-pyrazole-3-carboxamide] | 6.71 (≈ 11.5 µM) | 6.71 (≈ 11.5 µM) | 13.4 (≈ 22.9 µM) | good inhibitory effects | good inhibitory effects | good inhibitory effects | 
Cc1c(C(=O)NCCNC23CC4CC(C)(CC(C)(C4)C2)C3)nn(-c2ccc(Cl)cc2Cl)c1-c1ccc(Cl)cc1 [Compound 23, (5-(4-chlorophenyl)-1-(2,4-dichlorophenyl)-N-(2-(((1r,3R,5S,7r)-3,5-dimethyl-adamantan-1-yl)amino)ethyl)-4-methyl-1H-pyrazole-3-carboxamide] | 3.66 (≈ 6.25 µM) | 1.83 (≈ 3.12 µM) | 7.32 (≈ 12.5 µM) | good inhibitory effects | good inhibitory effects | good inhibitory effects | 
Cc1c(C(=O)N(C)CCNC2C3CC4CC(C3)CC2C4)nn(-c2ccc(Cl)cc2Cl)c1-c1ccc(Cl)cc1 (stereo not drawn) [Compound 74, N-(2-(((1r,3r,5r,7r)-adamantan-2-yl)amino)ethyl)-5-(4-chlorophenyl)-1-(2,4-dichlorophenyl)-N,4-dimethyl-1H-pyrazole-3-carboxamide] | 3.35 (≈ 5.86 µM) | 3.35 (≈ 5.86 µM) | 13.4 (≈ 23.4 µM) | good inhibitory effects | good inhibitory effects | good inhibitory effects | 
Cc1c(C(=O)NCCNC2C3CC4CC(C3)CC2C4)nn(-c2ccc(F)cc2F)c1-c1ccc(Cl)cc1 (stereo not drawn) [Compound 76, N-(2-(((1r,3r,5r,7r)-adamantan-2-yl)amino)ethyl)-5-(4-chloro-phenyl)-1-(2,4-difluorophenyl)-4-methyl-1H-pyrazole-3-carboxamide] | 3.66 (≈ 6.97 µM) | 1.83 (≈ 3.49 µM) | 7.32 (≈ 13.9 µM) | good inhibitory effects | good inhibitory effects | good inhibitory effects | 
Cc1ccc(-n2nc(C(=O)NCCNC3C4CC5CC(C4)CC3C5)c(C)c2-c2ccc(Cl)cc2)c(C)c1 (stereo not drawn) [Compound 77, N-(2-(((1r,3r,5r,7r)-adamantan-2-yl)amino)ethyl-5-(4-chloro-phenyl)-1-(2,4-dimethylphenyl)-4-methyl-1H-pyrazole-3-carboxamide] | 5.18 (≈ 10 µM) | 2.59 (≈ 5.01 µM) | 10.4 (≈ 20 µM) | good inhibitory effects | good inhibitory effects | good inhibitory effects | 
Cc1c(C(=O)NCCNC23CC4CC(CC(C4)C2)C3)nn(-c2ccc(Cl)cc2Cl)c1-c1ccc(Cl)cc1 [Compound 163, N-(2-(((3s,5s,7s)-adamantan-1-yl)amino)ethyl)-5-(4-chloro-phenyl)-1-(2,4-dichloro-phenyl)-4-methyl-1H-pyrazole-3-carboxamide] | 3.66 (≈ 6.56 µM) | 3.66 (≈ 6.56 µM) | 14.6 (≈ 26.2 µM) | good inhibitory effects | good inhibitory effects | good inhibitory effects | 
Cc1c(CNCCCNC2C3CC4CC(C3)CC2C4)nn(-c2ccc(Cl)cc2Cl)c1-c1ccc(Cl)cc1 (stereo not drawn) [Compound 164, N1-((1r,3r,5r,7r)-adamantan-2-yl)-N3-((5-(4-chloro-phenyl)-1-(2,4-dichloro-phenyl)-4-methyl-1H-pyrazol-3-yl)methyl)propane-1,3-diamine] | 3.24 (≈ 5.81 µM) | 3.24 (≈ 5.81 µM) | > 207 |  |  |  | 
Cc1c(CN(C)CCNC2C3CC4CC(C3)CC2C4)nn(-c2ccc(Cl)cc2Cl)c1-c1ccc(Cl)cc1 (stereo not drawn) [Compound 165, N1-((1r,3r,5r,7r)-adamantan-2-yl)-N2-((5-(4-chloro-phenyl)-1-(2,4-dichloro-phenyl)-4-methyl-1H-pyrazol-3-yl)methyl)-N2-methylethane-1,2-diamine] | 3.62 (≈ 6.49 µM) | 1.81 (≈ 3.24 µM) | 57.9 (≈ 104 µM) |  |  |  | 
Cc1c(CNCCNC2C3CC4CC(C3)CC2C4)nn(-c2ccc(Cl)cc2Cl)c1-c1ccc(Cl)cc1 (stereo not drawn) [Compound 166, N1-((1r,3r,5r,7r)-adamantan-2-yl)-N2-((5-(4-chlorophenyl)-1-(2,4-dichlorophenyl)-4-methyl-1H-pyrazol-3-yl)-methyl)ethane-1,2-diamine] | 7.62 (≈ 14 µM) | 3.81 (≈ 7 µM) | 7.62 (≈ 14 µM) |  |  |  | 
Cc1c(CNCCCCNC2C3CC4CC(C3)CC2C4)nn(-c2ccc(Cl)cc2Cl)c1-c1ccc(Cl)cc1 (stereo not drawn) [Compound 167, N1-((1r,3r,5r,7r)-adamantan-2-yl)-N4-((5-(4-chlorophenyl)-1-(2,4-dichlorophenyl)-4-methyl-1H-pyrazol-3-yl)-methyl)butane-1,4-diamine] | 1.05 (≈ 1.84 µM) | 2.1 (≈ 3.67 µM) | 2.1 (≈ 3.67 µM) |  |  |  | 
Cc1c(CNS(=O)(=O)CCNC23CC4CC(C)(CC(C)(C4)C2)C3)nn(-c2ccc(Cl)cc2Cl)c1-c1ccc(Cl)cc1 [Compound 168, N-((5-(4-chlorophenyl)-1-(2,4-dichlorophenyl)-4-methyl-1H-pyrazol-3-yl)methyl)-2-(((1r,3R,5S,7r)-3,5-dimethyl-adamantan-1-yl)amino)ethane-1-sulfonamide] | 21.3 (≈ 33.5 µM) | 10.7 (≈ 16.8 µM) | 21.3 (≈ 33.5 µM) |  |  |  | 
Cc1c(CNC(=O)CNC23CC4CC(C)(CC(C)(C4)C2)C3)nn(-c2ccc(Cl)cc2Cl)c1-c1ccc(Cl)cc1 [Compound 169, N-((5-(4-chlorophenyl)-1-(2,4-dichlorophenyl)-4-methyl-1H-pyrazol-3-yl)methyl)-2-(((1r,3R,5S,7r)-3,5-dimethyl-adamantan-1-yl)amino)-acetamide] | 1.91 (≈ 3.26 µM) | 1.91 (≈ 3.26 µM) | 0.95 (≈ 1.62 µM) |  |  |  | 
Cc1c(C(=O)N2CCN(C(=O)C34CC5CC(CC(C5)C3)C4)CC2)nn(-c2ccc(Cl)cc2Cl)c1-c1ccc(Cl)cc1 [Compound 170, ((3r,5r,7r)-adamantan-1-yl)(4-(5-(4-chlorophenyl)-1-(2,4-dichlorophenyl)-4-methyl-1H-pyrazole-3-carbonyl)piperazin-1-yl)methanone] | > 293 | > 293 | > 293 |  |  |  | 
Cc1c(C(=O)OC2CC3CCC2(C)C3(C)C)nn(-c2ccc(Cl)cc2Cl)c1-c1ccc(Cl)cc1 (stereo not drawn) [Compound 171, 1,7,7-trimethylbicyclo[2.2.1]-heptan-2-yl 5-(4-chlorophenyl)-1-(2,4-dichlorophenyl)-4-methyl-1H-pyrazole-3-carbox-ylate] | > 200 | > 200 | 200 (≈ 386 µM) |  |  |  | 
Cc1c(C(=O)O[C@H]2C[C@@H]3CC[C@@]2(C)C3(C)C)nn(-c2ccc(Cl)cc2Cl)c1-c1ccc(Cl)cc1 [Compound 172, (1S,2S,4S)-1,7,7-trimethyl-bicyclo[2.2.1]heptan-2-yl 5-(4-chlorophenyl)-1-(2,4-dichlorophenyl)-4-methyl-1H-pyrazole-3-carboxylate] | > 338 | 84.5 (≈ 163 µM) |  |  |  |  | > 338
